The subject of one assay is intraocular pressure. Particulars: topical application or systemic injection; literature; cited from earlier work.
The target of assay [1] is T1, cannabinoid receptor binding sites (CP 55940 binding sites) (Rattus norvegicus, UniProt P20272).
T1 construct: from tissue; host or cells: rat brain membranes (inferred from the cited Devane et al. 1988)
The following applies: result in words, literature (Devane et al.), radio-labelled CP 55940; natural and synthetic cannabinoids; cited from earlier work.

Assay [2] deals with T1, cannabinoid receptor binding sites (CP 55940 binding sites). Kind of assay: CP 55940 binding assay (given "CP 55490 [sic] binding assay" in the source). From the text: (§1) Med. Assoc. 217, 1392 (1971)]. […] Opth. 7, 921-923 (1975); Green and Pederson, Effect of delta-9 Tetrahydrocannabinol on Aqueous Dynamics and Ciliary Body Permeability in the Rabbit Eye., Exptl. Eye Research 15, 499-507 (1973); Colasanti, Craig and Allara, Intraocular Pressure, Ocular Toxicity and Neurotoxicity after Administration of Cannabinol or Cannabigerol, Exptl. Eye Research 39, 252-259 (1984)]. Similarly, synthetic cannabinoids also reduce intraocular pressure [Green, Symunds, Oliver and Elijah, Intraocular Pressure Following Systemic Administration of Cannabinoids., Curr. Eye Research 2, 247-253 (1982); Tiedeman, Shields, Weber, Crow, Coccetto, Harris and Howes, Ophthalmology, 88, 270-277 (1981); Colasanti et al., supra]. […] 34, 605-613 (1988)]. Natural and synthetic cannabinoids and representative examples of the compounds of the present invention, bind to CP 55940 binding sites. […] It is believed that agonist activity at the cannabinoid receptor mediates the anti-glaucoma actions of cannabinoids, and that agonist activity at this receptor correlates with ocular pressure lowering actions in man.
The 3-R3 -4-arylcarbonyl-1-[(4-morpholinyl)-lower-alkyl]-1H-indoles of formula I were tested in the mouse vas deferens test and the CP 55490 binding assay. […]

For the next assay, the target named is T2, cannabinoid receptor (Mus musculus, UniProt P47746).
T2 construct: mouse vasa deferentia (MVD) preparation in vitro; from tissue; host or cells: mouse vas deferens
T2 sequence (P47746 whole entry): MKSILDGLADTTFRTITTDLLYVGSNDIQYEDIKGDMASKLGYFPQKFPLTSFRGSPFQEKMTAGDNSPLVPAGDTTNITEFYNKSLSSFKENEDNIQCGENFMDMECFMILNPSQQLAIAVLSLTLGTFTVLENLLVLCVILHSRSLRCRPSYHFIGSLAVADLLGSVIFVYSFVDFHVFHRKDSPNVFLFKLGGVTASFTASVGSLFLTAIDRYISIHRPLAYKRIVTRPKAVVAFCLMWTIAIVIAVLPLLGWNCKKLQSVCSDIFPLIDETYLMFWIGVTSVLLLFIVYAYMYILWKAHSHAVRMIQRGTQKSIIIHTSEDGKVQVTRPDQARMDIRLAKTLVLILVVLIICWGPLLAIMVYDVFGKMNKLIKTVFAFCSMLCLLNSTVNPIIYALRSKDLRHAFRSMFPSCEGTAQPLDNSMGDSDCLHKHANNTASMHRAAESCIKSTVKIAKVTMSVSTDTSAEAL
Nature of the assay: mouse vas deferens (MVD) test, inhibition of contractions in vitro. Format: cell-based. The following applies: considered active at IC50 of 5.0 μM or less, read-out: MVD IC50 (inhibitory concentration which produces 50% of the maximum response).
Excerpt: as §1
The 3-R3 -4-arylcarbonyl-1-[(4-morpholinyl)-lower-alkyl]-1H-indoles of formula I were tested in the mouse vas deferens test and the CP 55490 binding assay. The results, expressed as the IC50 in μM (the inhibitory concentration which produces 50% of the maximum response), are given in the following table, the compounds being identified by the example number above where their preparations are described.

We go through seven compounds from patent publication US5081122A, “Antiglaucoma compositions containing 4-arylcarbonyl-1-(4-morpholinyl)-lower-alkyl)-1H-indoles and method of use thereof” (Sterling Drug Inc., priority 1990, dated 1992).

Structures are written as SMILES. Where a name gives a salt, the structure may show the parent alone.

T1 sequence (P20272 whole entry): as the sequence (P47746 whole entry) above, with D95E counted along it

For the compound `CCCCCc1cc(O)c2c(c1)OC(C)(C)C1CCC(C)=CC21` (single isomer, unassigned) [delta-9 tetrahydrocannabinol], the intraocular pressure entry with intraocular pressure is recorded as “reduces intraocular pressure”. Take `CCCCCCC(C)(C)c1ccc([C@@H]2C[C@H](O)CC[C@H]2CCCO)c(O)c1` [CP 55940, 4-(1,1-dimethylheptyl)-2,3'-dihydroxy-6'alpha-(3-hydroxypropyl)-1',2',3',4',5',6'-hexahydrobiphenyl]: in assay [1], the “binding to CP 55940 binding sites / cannabinoid receptor” value is “binds in a specific and saturable manner”. Turning to `COc1ccc(C(=O)c2cccc3c2ccn3CCN2CCOCC2)cc1` [Example 1A, 4-(4-methoxybenzoyl)-1-[2-(4-morpholinyl)ethyl]-1H-indole hydrochloride], the IC50 stood at 444 nM in assay [2] and 76 nM on cannabinoid receptor. As to `COc1ccc(C(=O)c2cccc3c2ccn3CCCN2CCOCC2)cc1` [Example 1B, 4-(4-methoxybenzoyl)-1-[3-(4-morpholinyl)propyl]-1H-indole hydrochloride], on cannabinoid receptor, the IC50 was 33 nM.

Consider `O=C(c1cccc2ccccc12)c1cccc2c1ccn2CCN1CCOCC1` [Example 1C, 1-[2-(4-morpholinyl)ethyl]-4-(1-naphthylcarbonyl)-1H-indole p-toluenesulfonate hydrate 3:1], for which the IC50 on cannabinoid receptor was 3 nM. For `O=C(c1ccc2ccccc2c1)c1cccc2c1ccn2CCN1CCOCC1` [Example 1D, 4-(2-naphthylcarbonyl)-1-[2-(4-morpholinyl)ethyl]-1H-indolehydrochloride], the IC50 in assay [2] was 363 nM; at cannabinoid receptor, 163 nM. As for `COc1ccc(C(=O)c2cccc3c2c(C)cn3CCN2CCOCC2)cc1` [Example 1E, 4-(4-methoxybenzoyl)-3-methyl-1-[2-(4-morpholinyl)ethyl)-1H-indole hydrochloride], the IC50 at cannabinoid receptor came to 5000 nM.
